From patent US20250002507A1, “7,8-DIHYDRO-5H-1,6-NAPHTHYRIDINE DERIVATIVES AS POSITIVE ALLOSTERIC MODULATORS OF THE MUSCARINIC ACETYLCHOLINE RECEPTOR M4 FOR TREATING NEUROLOGICAL AND PSYCHIATRIC DISORDERS” (Vanderbilt University, priority 2021, published 2025)
Read-outs that look alike come from different tables or passages of the source.

Target: T1, Human M4 (Homo sapiens, UniProt P08173)
T1 construct: expressed in transfected cells
T1 sequence (P08173 1-479): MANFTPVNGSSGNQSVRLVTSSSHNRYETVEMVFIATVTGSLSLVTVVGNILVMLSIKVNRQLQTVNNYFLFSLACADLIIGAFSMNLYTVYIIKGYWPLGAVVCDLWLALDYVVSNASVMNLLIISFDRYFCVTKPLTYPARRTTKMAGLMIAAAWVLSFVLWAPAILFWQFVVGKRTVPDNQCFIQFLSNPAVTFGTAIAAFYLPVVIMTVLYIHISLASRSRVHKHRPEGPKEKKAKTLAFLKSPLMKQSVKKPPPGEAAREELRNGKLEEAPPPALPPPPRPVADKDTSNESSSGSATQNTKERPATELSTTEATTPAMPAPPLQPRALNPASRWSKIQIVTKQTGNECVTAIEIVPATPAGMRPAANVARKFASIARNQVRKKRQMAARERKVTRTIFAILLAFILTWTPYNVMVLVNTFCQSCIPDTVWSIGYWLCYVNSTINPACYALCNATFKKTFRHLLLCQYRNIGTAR
Assay: mAChR M4 cell-based functional assay (calcium flux, potentiation of EC20 acetylcholine response), hM4-Gqi5 CHO-K1 cells
Settings: for Emax at 30 µM: CHO-K1, % ACh maximum at 30 μM; for EC50: calcium flux, read-out: Human M4 EC50
Outline: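 Positive allosteric modulation was scored as a concentration-dependent rise in the response to an EC20 dose of acetylcholine, added 144 s after the compound. Human M4-Gqi5 CHO-K1 cells carried Fluo-4 dye, and compounds ran as 11-point, 3-fold dilution series. EC50 and Emax came from four-parameter logistic fits of the FDSS fluorescence-ratio traces.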

[1] = hM4-Gqi5 CHO-K1 cells, PAM of EC20 acetylcholine
[2] = Table 4, Human M4, read-out: Emax (% ACh maximum at 30 μM)
[3] = Table 4, potentiation of EC20 acetylcholine response, CHO-K1 cells
[4] = Table 3, Human M4, read-out: Emax (% ACh maximum at 30 μM)
[5] = Table 3, potentiation of EC20 acetylcholine response, CHO-K1 cells

Emax at 30 µM [2]	EC50 [3]	Emax at 30 µM [4]	EC50 [5]	SMILES	further results
77%	686 nM			[2H]C1([2H])Cc2ncc(Nc3ccncc3C)cc2C([2H])([2H])N1c1nn2cnnc2cc1C [Compound 356, 6-(7-methyl-[1,2,4]triazolo[4,3-b]pyridazin-6-yl)-N-(3-methylpyridin-4-yl)-5,6,7,8-tetrahydro-1,6-naphthyridin-5,5,7,7-d4-3-amine]	
		86%	351 nM	Cc1c(N2CCc3ncc(-c4ccc(N5CCC(F)(F)CC5)nc4)cc3C2)nn2cnnc2c1C [Compound 215, 3-(6-(4,4-difluoropiperidin-1-yl)pyridin-3-yl)-6-(7,8-dimethyl-[1,2,4]triazolo[4,3-b]pyridazin-6-yl)-5,6,7,8-tetrahydro-1,6-naphthyridine]	
		103%	101 nM	Cc1cc2nncn2nc1N1CCc2ncc(Oc3cccc(F)c3F)cc2C1 [Compound 294, 3-(2,3-difluorophenoxy)-6-(7-methyl-[1,2,4]triazolo[4,3-b]pyridazin-6-yl)-5,6,7,8-tetrahydro-1,6-naphthyridine]	
		38%	4120 nM	Cc1cc(Nc2cnc3c(c2)CN(c2nn4cnnc4c(C)c2C)CC3)n(CCC(C)C)n1 [Compound 211, 6-(7,8-dimethyl-[1,2,4]triazolo[4,3-b]pyridazin-6-yl)-N-(1-isopentyl-3-methyl-1H-pyrazol-5-yl)-5,6,7,8-tetrahydro-1,6-naphthyridin-3-amine]	
		82%	2360 nM	COC1CCN(c2cnc3c(c2)CN(c2nn4c(C(F)(F)F)nnc4cc2C)CC3)C1 (centres unmarked) [Compound 287, 3-(3-methoxypyrrolidin-1-yl)-6-(7-methyl-3-(trifluoromethyl)-[1,2,4]triazolo[4,3-b]pyridazin-6-yl)-5,6,7,8-tetrahydro-1,6-naphthyridine]	
		99%	71 nM	Cc1c(N2CCc3ncc(N4CCCn5nccc54)cc3C2)nn2cnnc2c1C [Compound 209, 3-(6,7-dihydropyrazolo[1,5-a]pyrimidin-4(5H)-yl)-6-(7,8-dimethyl-[1,2,4]triazolo[4,3-b]pyridazin-6-yl)-5,6,7,8-tetrahydro-1,6-naphthyridine]	
46%	8910 nM			Cc1c(N2CCc3ncc(N4CCO[C@@H](c5ccccc5)C4)cc3C2)nn2c(C(F)(F)F)nnc2c1C [Compound 323, (S)-4-(6-(7,8-dimethyl-3-(trifluoromethyl)-[1,2,4]triazolo[4,3-b]pyridazin-6-yl)-5,6,7,8-tetrahydro-1,6-naphthyridin-3-yl)-2-phenylmorpholine]	
		93%	346 nM	Cc1c(N2CCc3ncc(OCC4CC4(F)F)cc3C2)nn2cnnc2c1C (centres unmarked) [Compound 266, 3-((2,2-difluorocyclopropyl)methoxy)-6-(7,8-dimethyl-[1,2,4]triazolo[4,3-b]pyridazin-6-yl)-5,6,7,8-tetrahydro-1,6-naphthyridine]	
98%	321 nM			Cc1c(N2CCc3ncc(N4CCOC[C@H]4C)cc3C2)nn2c(C(F)(F)F)nnc2c1C [Compound 314, (R)-4-(6-(7,8-dimethyl-3-(trifluoromethyl)-[1,2,4]triazolo[4,3-b]pyridazin-6-yl)-5,6,7,8-tetrahydro-1,6-naphthyridin-3-yl)-3-methylmorpholine]	
81%	246 nM			Cc1c(N2CCc3ncc(Cc4cccc(F)c4)cc3C2)nn2cnnc2c1C [Compound 311, 6-(7,8-dimethyl-[1,2,4]triazolo[4,3-b]pyridazin-6-yl)-3-(3-fluorobenzyl)-5,6,7,8-tetrahydro-1,6-naphthyridine]	
62%	2080 nM			Cc1cc2nnc(C(F)(F)F)n2nc1N1CCc2ncc(N3CCOC(c4ccccn4)C3)cc2C1 (centres unmarked) [Compound 326, 4-(6-(7-methyl-3-(trifluoromethyl)-[1,2,4]triazolo[4,3-b]pyridazin-6-yl)-5,6,7,8-tetrahydro-1,6-naphthyridin-3-yl)-2-(pyridin-2-yl)morpholine]	
102%	143 nM			Cc1c(N2CCc3ncc(N4CC(C)Cn5nccc54)cc3C2)nn2c(C(F)(F)F)nnc2c1C (centres unmarked) [Compound 306, 6-(7,8-dimethyl-3-(trifluoromethyl)-[1,2,4]triazolo[4,3-b]pyridazin-6-yl)-3-(6-methyl-6,7-dihydropyrazolo[1,5-a]pyrimidin-4(5H)-yl)-5,6,7,8-tetrahydro-1,6-naphthyridine]	
93%	348 nM			Cc1c(N2CCc3ncc(Oc4cccc(F)c4F)cc3C2)nn2cnnc2c1C [Compound 304, 3-(2,3-difluorophenoxy)-6-(7,8-dimethyl-[1,2,4]triazolo[4,3-b]pyridazin-6-yl)-5,6,7,8-tetrahydro-1,6-naphthyridine]	
82%	296 nM			Cc1c(N2CCc3ncc(N4CCO[C@H](C)C4)cc3C2)nn2c(C(F)(F)F)nnc2c1C [Compound 313, (R)-4-(6-(7,8-dimethyl-3-(trifluoromethyl)-[1,2,4]triazolo[4,3-b]pyridazin-6-yl)-5,6,7,8-tetrahydro-1,6-naphthyridin-3-yl)-2-methylmorpholine]	

The next lines start with the molecule.

SMILES	Emax at 30 µM [2]	EC50 [3]	Emax at 30 µM [4]	EC50 [5]	further results
Cc1c(N2CCc3ncc(C(=O)NCCN4CCCC4)cc3C2)nn2cnnc2c1C [Compound 125, 6-(7,8-dimethyl-[1,2,4]triazolo[4,3-b]pyridazin-6-yl)-N-(2-pyrrolidin-1-ylethyl)-7,8-dihydro-5H-1,6-naphthyridine-3-carboxamide]					Emax at 30 µM (human M4, read-out: Emax): 85%; EC50 [1]: 7200 nM
Cc1c(N2CCc3ncc(Nc4cccnc4F)cc3C2)nn2cnnc2c1C [Compound 82, 6-(7,8-dimethyl-[1,2,4]triazolo[4,3-b]pyridazin-6-yl)-N-(2-fluoro-3-pyridyl)-7,8-dihydro-5H-1,6-naphthyridin-3-amine]					Emax at 30 µM (human M4, read-out: Emax): 99%; EC50 [1]: 119 nM
Cc1c(N2CCc3ncc(Nc4cc(F)cc(F)c4F)cc3C2)nn2c(C)nnc2c1C [Compound 85, N-(2,3,5-trifluorophenyl)-6-(3,7,8-trimethyl-[1,2,4]triazolo[4,3-b]pyridazin-6-yl)-7,8-dihydro-5H-1,6-naphthyridin-3-amine]					Emax at 30 µM (human M4, read-out: Emax): 92%; EC50 [1]: 352 nM
Cc1cc2nncn2nc1N1CCc2ncc(-c3ccc(C(F)(F)F)nc3)cc2C1 [Compound 196, 6-(7-methyl-[1,2,4]triazolo[4,3-b]pyridazin-6-yl)-3-(6-(trifluoromethyl)pyridin-3-yl)-5,6,7,8-tetrahydro-1,6-naphthyridine]			80%	708 nM	
Cc1nn(C)cc1-c1cnc2c(c1)CN(c1nn3c(C)nnc3c(C)c1C)CC2 [Compound 88, 3-(1,3-dimethylpyrazol-4-yl)-6-(3,7,8-trimethyl-[1,2,4]triazolo[4,3-b]pyridazin-6-yl)-7,8-dihydro-5H-1,6-naphthyridine]					Emax at 30 µM (human M4, read-out: Emax): 97%; EC50 [1]: 195 nM
Cc1c(N2CCc3ncc(Nc4cc(Cl)ccc4F)cc3C2)nn2cnnc2c1C [Compound 34, N-(5-chloro-2-fluoro-phenyl)-6-(7,8-dimethyl-[1,2,4]triazolo[4,3-b]pyridazin-6-yl)-7,8-dihydro-5H-1,6-naphthyridin-3-amine]					Emax at 30 µM (human M4, read-out: Emax): 93%; EC50 [1]: 562 nM
Cc1cc2c(nc1C)CCN(c1nn3cnnc3c(C)c1C)C2 [Compound 167, 6-(7,8-dimethyl-[1,2,4]triazolo[4,3-b]pyridazin-6-yl)-2,3-dimethyl-5,6,7,8-tetrahydro-1,6-naphthyridine]				188 nM	Emax (CHO-K1, read-out: Emax (% ACh maximum at 30 μM)): 106%
[2H]c1nnc2c(C)c(C)c(N3CCc4ncc(-c5c(C)noc5C)cc4C3)nn12 [Compound 74, 4-[6-(3-deuterio-7,8-dimethyl-[1,2,4]triazolo[4,3-b]pyridazin-6-yl)-7,8-dihydro-5H-1,6-naphthyridin-3-yl]-3,5-dimethyl-isoxazole]					Emax at 30 µM (human M4, read-out: Emax): 103%; EC50 [1]: 108 nM
COc1nc2c(cc1C)CN(c1nn3cnnc3c(C)c1C)CC2 [Compound 161, 6-(7,8-dimethyl-[1,2,4]triazolo[4,3-b]pyridazin-6-yl)-2-methoxy-3-methyl-5,6,7,8-tetrahydro-1,6-naphthyridine]			105%	2750 nM	
Cc1c(N2CCc3ncc(-c4cnc(Cl)c(F)c4)cc3C2)nn2cnnc2c1C [Compound 177, 3-(6-chloro-5-fluoropyridin-3-yl)-6-(7,8-dimethyl-[1,2,4]triazolo[4,3-b]pyridazin-6-yl)-5,6,7,8-tetrahydro-1,6-naphthyridine]			85%	747 nM	
Cc1c(N2CCc3ncc(-c4cc[nH]c4)cc3C2)nn2cnnc2c1C [Compound 101, 6-(7,8-dimethyl-[1,2,4]triazolo[4,3-b]pyridazin-6-yl)-3-(1H-pyrrol-3-yl)-7,8-dihydro-5H-1,6-naphthyridine]					Emax at 30 µM (human M4, read-out: Emax): 98%; EC50 [1]: 389 nM
